According to patent US10080764B2, “Topical minocycline compositions and methods of using the same” (Laboratory Skin Care, Inc., priority 2011, dated 2018):

What was measured:
Type in all cases: physicochemical
[1] = Binding of minocycline HCl to Hydroxysomes and release (pH dependence); details: for pH at which minocycline attaches (binds) to Hydroxysomes: binding suspension in water, shaken 30 min, monohydrochloride
Description: Hydroxysomes® (calcium phosphate particles, Laboratory Skin Care, San Carlos, Calif.) were suspended in water. […] The final pH of the suspension was adjusted to 6.2 to 8.0 with add. The binding suspension was mixed by shaking for 30 min. The binding suspensions were centrifuged at 10,000 rpm for 10 min in the bench top microcentrifuge. The supernatants were analyzed with the Shimadzu spectrophotometer to quantify the free minocycline. The bound minocycline was calculated by subtracting the amount of the minocycline detected in the supernatant, from the total initial amount in the binding suspension. The total initial minocycline absorbance at the binding pH was calculated from the linearity equation of the standard plot. • Controls: Minocycline solution at the same pH with the same concentration as in the binding mixture. D. Example Formulation

[2] = Minocycline stability in water, 6 days at room temperature, HPLC of supernatant; details: capped glass vial
Text: The vials were then centrifuged and the supernatant analyzed by HPLC.

[3] = Fluorescence of bulk powders under white and UV black light; details: 25 mg MNC/g Hydroxysomes

pH at which minocycline associated with Hydroxysomes is unstable (releases) [1]: acidic pH
pH at which minocycline attaches (binds) to Hydroxysomes ([1]; listed as Minocycline): 6.2-8.0
pH at which minocycline attaches (binds) to Hydroxysomes [1]: neutral or alkaline pH
degradation by HPLC analysis of supernatant [2]: substantial degradation
visible discoloration of vial [2]: visibly discolored
fluorescence of bulk powder under black light [3]: Intense yellow-orange fluorescence
Structure (SMILES): CN(C)c1ccc(O)c2c1C[C@H]1C[C@H]3[C@H](N(C)C)C(O)=C(C(N)=O)C(=O)[C@@]3(O)C(O)=C1C2=O.Cl [Minocycline HCl, 4,7-Bis(dimethylamino) 1,4,4a,5,5a,6,11,12a-octahydro-3,10,12,12a-tetrahydroxy-1,11-dioxo-2-naphthacenecarboxamide monohydrochloride]
